Article PMC11672294, “The Antipsychotic Drug Aripiprazole Suppresses Colorectal Cancer by Targeting LAMP2a to Induce RNH1/miR‐99a/mTOR‐Mediated Autophagy and Apoptosis” (Advanced Science, 2024)
Counter-ions that a name gives are not always drawn.

tested on: HT29; details: 72 h, relative to DMSO; 10 µM
In short: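 HT29 viability used WST-1 reduction (2 h, 37 °C, A450) after 72 h of treatment; screening compounds were tested singly at 10 µM, with dimethyl sulfoxide as the comparison.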

Compared with `N=C(N)NC(=O)c1nc(Cl)c(N)nc1N` [Amiloride HCl], `Nc1nc(Cl)nc2c1ncn2[C@@H]1O[C@H](CO)[C@@H](O)[C@@H]1F` [Clofarabine] is lower in “Relative cell viability (%)” value: 66.53% for the first, 43.15% for the second.

First: COC(=O)C1=C(C#N)NC(C)=C(C(=O)OC(C)C)C1c1cccc([N+](=O)[O-])c1 (stereo not shown) [Nilvadipine]
Second: CC1(C)S[C@@H]2[C@H](NC(=O)[C@H](N)c3ccc(O)cc3)C(=O)N2[C@H]1C(=O)O [Amoxicillin]
The “Relative cell viability (%)” value of the first is higher: 81.07% for the first, 67.96% for the second.

First: CC[C@H](Nc1ncnc2[nH]cnc12)c1nc2cccc(F)c2c(=O)n1-c1ccccc1 [CAL-101 (Idelalisib, GS-1101)]
Second: C[C@@H]1COC(Nc2ccc3ncnc(Nc4ccc(OCc5nccs5)c(Cl)c4)c3c2)=N1 [Varlitinib]
The “Relative cell viability (%)” value of the first is higher: 112.6% for the first, 111.6% for the second.

First: CC(C(=O)O)c1ccc2c(c1)CC(=O)c1ccccc1S2 (stereo not shown) [Zaltoprofen]
Second: CC(C(=O)O)c1ccc2c(c1)Cc1cccnc1O2 (stereo not shown) [Pranoprofen]
The “Relative cell viability (%)” value of the first is lower: 88.35% for the first, 135% for the second.

Going from `CCCc1cc(=O)[nH]c(=S)[nH]1` [Propylthiouracil] to `C=CCc1cc(OC)c(O)c(C(=O)NCCO)c1` [Alibendol], the “Relative cell viability (%)” value falls from 201.3% to 149.2%.

Going from `CNC(=O)c1ccc(Nc2ncc(C(F)(F)F)c(NCc3nccnc3N(C)S(C)(=O)=O)n2)cc1` [Defactinib (VS-6063, PF-04554878)] to `O=C(O)c1cccnc1Nc1cccc(C(F)(F)F)c1` [Niflumic acid], the “Relative cell viability (%)” value rises from 67.52% to 95.63%.

First: CC/C(=C(/CC)c1ccc(O)cc1)c1ccc(O)cc1 [Diethylstilbestrol]
Second: O=C(c1ccc(OCCN2CCCCC2)cc1)c1c(-c2ccc(O)cc2)sc2cc(O)ccc12 [Raloxifene HCl]
The “Relative cell viability (%)” value of the first is higher: 69.07% for the first, 36.92% for the second.

Compared with `CNC(=O)[C@@H](NC(=O)[C@H](CC(C)C)[C@H](O)C(=O)NO)C(C)(C)C` [Marimastat(BB-2516)], `CC(C)C(=O)Nc1ccc([N+](=O)[O-])c(C(F)(F)F)c1` [Flutamide] is lower in “Relative cell viability (%)” value: 121.4% for the first, 100.9% for the second.

First: CN1CC[C@H](c2c(O)cc(O)c3c(=O)cc(-c4ccccc4Cl)oc23)[C@H](O)C1 [Flavopiridol (Alvocidib)]
Second: CCc1oc2ccccc2c1C(=O)c1cc(Br)c(O)c(Br)c1 [Benzbromarone]
The “Relative cell viability (%)” value of the first is lower: 8.879% for the first, 82.12% for the second.

First: CCCCc1nc(Cl)c(CO)n1Cc1ccc(-c2ccccc2-c2nn[nH]n2)cc1 [Losartan Potassium (DuP 753)]
Second: Cc1cccc(-c2nn3c(c2-c2ccnc4ccc(C(N)=O)cc24)CCC3)n1 [LY2157299]
The “Relative cell viability (%)” value of the first is lower: 88.32% for the first, 106.7% for the second.

First: Nc1ccc(/N=N/c2ccccc2)c(N)n1 [Phenazopyridine HCl]
Second: c1ccc2[nH]c(-c3cscn3)nc2c1 [Thiabendazole]
The “Relative cell viability (%)” value of the first is higher: 73.94% for the first, 70.34% for the second.

Compared with `O=c1oc2c(O)c(O)cc3c(=O)oc4c(O)c(O)cc1c4c23` [Ellagic acid], `COc1c2occc2cc2ccc(=O)oc12` [Methoxsalen] is higher in “Relative cell viability (%)” value: 74.3% for the first, 170.4% for the second.

Going from `CCCCCCCN(CC)CCCC(O)c1ccc(NS(C)(=O)=O)cc1` (stereo not shown) [Ibutilide Fumarate] to `Cc1noc(NS(=O)(=O)c2ccc(N)cc2)c1C` [Sulfisoxazole], the “Relative cell viability (%)” value rises from 112% to 134.3%.

First: Oc1c(Br)cc(Br)c2cccnc12 [Broxyquinoline]
Second: Cc1ccnc2c1NC(=O)c1cccnc1N2C1CC1 [Nevirapine]
The “Relative cell viability (%)” value of the first is lower: 83.94% for the first, 94.49% for the second.

Going from `C[C@H]1C[C@@H]2[C@H]([C@@H](O)C[C@@]3(C)[C@H]2CC[C@]3(O)C(=O)CO)[C@@]2(C)C=CC(=O)C=C12` [Methylprednisolone] to `COc1ccc(-c2ccc3cc(C(=O)O)ccc3c2)cc1[C@]12C[C@H]3C[C@H](C[C@H](C3)C1)C2` [Adapalene], the “Relative cell viability (%)” value falls from 42.37% to 16.67%.

Going from `Clc1ccc(C(c2ccccc2Cl)C(Cl)Cl)cc1` (stereo not shown) [Mitotane] to `Clc1ccc(COC(Cn2ccnc2)c2ccc(Cl)cc2Cl)c(Cl)c1` (stereo not shown) [Miconazole Nitrate], the “Relative cell viability (%)” value rises from 63.98% to 184.3%.

First: CC(=O)Oc1cc2c(s1)CCN(C(C(=O)C1CC1)c1ccccc1F)C2 (stereo not shown) [Prasugrel]
Second: COc1ccccc1OCC(O)CN1CCN(CC(=O)Nc2c(C)cccc2C)CC1 (stereo not shown) [Ranolazine]
The “Relative cell viability (%)” value of the first is higher: 68.07% for the first, 67.8% for the second.

First: CS(=O)(=O)c1ccc(C2=C(c3ccccc3)C(=O)OC2)cc1 [Rofecoxib]
Second: CC(C)(O)c1ccccc1CC[C@@H](SCC1(CC(=O)O)CC1)c1cccc(/C=C/c2ccc3ccc(Cl)cc3n2)c1 [Montelukast Sodium]
The “Relative cell viability (%)” value of the first is higher: 116% for the first, 74.85% for the second.

First: COc1ccc2[nH]c([S+]([O-])Cc3ncc(C)c(OC)c3C)nc2c1 (stereo not shown) [Omeprazole]
Second: O=C(CCCN1CCN(c2ccccn2)CC1)c1ccc(F)cc1 [Azaperone]
The “Relative cell viability (%)” value of the first is lower: 88.32% for the first, 93.03% for the second.

First: Nc1nccs1 [Aminothiazole]
Second: O=C(O)CSCC(=O)NC1CCSC1=O (stereo not shown) [Erdosteine]
The “Relative cell viability (%)” value of the first is lower: 93.03% for the first, 104.7% for the second.
